In patent US12595251B2, “Amidines and amidine analogs for the treatment of bacterial infections and potentiation antibiotics” (GEORGIA STATE UNIVERSITY RESEARCH FOUNDATION, INC., priority 2018, dated 2026):
Where a name gives a salt, the structure may show the parent alone. Read-outs that look alike come from different tables or passages of the source.

What was measured:
H9c2 cells = experiment: Cytotoxicity in H9c2 cells (CCK-8, 24 h); type: cell-based
Protocol: (§1) H9c2 (ATCC®R-1446™) cells Were used in the studies. The H9c2 cells were maintained in DMEM (Dulbeccoa's Modified Eagle's Medium) supplemented with 10% fetal bovine serum (Mid Sci; S01520HI) and 1% penicillin-streptomycin (Sigma-Aldrich; P4333) at 37° C. with 5% CO2. The H9c2 cells were seeded in 96-well plate one day before the experiment. Different concentrations of di-amidine compounds were added into the H9c2 cells. The cells were then incubated with the compounds for 24 h at 37° C. with 5% CO2. The cell viability was tested by the CCK-8. Specifically, after 24 h incubation, 10 μL CCK-8 was added to each well. After 3 h incubation at 37° C., the absorbance at 450 nm was recorded by a plate reader. The cytoxicity in HEK293 and 3T3 cells was measured using the same procedure. Data is shown in Table 5 (NT=not toxic; --=not tested).

3T3 cells = experiment: Cytotoxicity in 3T3 cells (CCK-8, 24 h); type: cell-based; conditions: for 3T3 cytotoxicity at 100 μM ("100 μM result in x%"): NT=not toxic
Protocol: as §1

HEK293 cells = experiment: Cytotoxicity in HEK293 cells (CCK-8, 24 h); type: cell-based; conditions: for HEK293 cytotoxicity at 100 μM ("100 μM result in x%"): NT=not toxic
Protocol: as §1

MRSA = experiment: Sensitization of MRSA toward antibiotics (OD600, 24 h); type: cell-based, Staphylococcus aureus; conditions: for Sensitization fold, MRSA towards rifampicin: compound at 10 μg/ml
Protocol: (§2) Bacteria was cultured with rifampicin at various concentrations in the presence or absence of Compound M-1 for 24 hours at 37° C. and bacterial growth density was determined by measuring OD600. The y-axis is growth density measured in percent. The x-axis is rifampicin concentration measured in micrograms per milliliter (***: p<0.01).
Compound M-1 (2.7 μg/ml) sensitizes MRSA towards existing antibiotics such as rifampicin (32-fold) (FIG. 22B) and trovafloxacin (16-fold). Rifampicin is the first line of defense against MRSA and many MRSA stains grow resistance to rifampicin through overexpression of efflux pump and other mechanisms. Combined with Compound M-1, rifampicin can be used more effectively against MRSA.

wild type B. subtilis [1] = experiment: Sensitization of B. subtilis toward antibiotics (MIC, OD600, 24 h); type: cell-based, Bacillus subtilis; conditions: compound at 5 μg/ml
[2] = Lipid A binding assay using Dansyl-PMBN displacement on E. coli; design: species or system Escherichia coli; conditions: 10 μM Dansyl-PMBN on E. coli, gradual addition of compound
Protocol: FIG. 21 is a graph describing the in vivo lipid A binding assay using Dansyl-PMBN as described in Example 11. Dansyl-PMBN (10 μM) was added to E. coli (OD600 measurement of about 0.5) and the fluorescent intensity at this time was recorded as F0. Sensitizers (Compound C, Compound E-20, and Polymyxin B) were added gradually and the fluorescent intensity was recorded 30 seconds later to determine the fluorescent intensity as a percent. The x-axis is concentration of the sensitizers measured in μM and the y-axis is the fluorescent intensity measured as a percent.
Lipid A is a key component of the outer membrane of Gram-negative bacteria and is responsible for maintaining its integrity of the outer membrane. The binding affinity of the compounds of the present invention to Lipid A was measured following literature procedures using a fluorescent conjugate of a polymyxin-B derivative (Dansyl-PMBN). Dansyl-PMBN binds to the lipid A part of LPS and leads to increased fluorescent intensity. […] When 10 μM of Dansyl-PMBN was added to E. coli stock (OD600 measurement around 0.5), the fluorescent intensity increased 10-fold.

E. coli = experiment: Sensitization of E. coli to erythromycin (sensitization fold from IC90, OD600, 20 h); type: cell-based, Escherichia coli; conditions: general statement on amidine substitution or ring restraint
Protocol: E. coli bacteria were cultured in Miller's broth at 37° C. overnight prior to treatment. B. subtilis bacteria were cultured in nutrient broth at 37° C. overnight prior to treatment. […] Bacterial density was measured based on OD600.

wild type B. subtilis [3] = experiment: Sensitization of B. subtilis toward antibiotics (MIC, OD600, 24 h); type: cell-based, Bacillus subtilis; conditions: compound at 10 μg/ml
Protocol: as §2, with “FIG. 22A is a bar graph showing that Compound M-1 sensitizes B. subtilis towards rifampicin as described in Example 13. Bacteria” for “Bacteria”
Compound M-1 can sensitize Gram-positive bacteria such as B. subtilis towards traditional antibiotics. […] The sensitization fold is 32-fold for Compound M-1 and the FIC index is 0.14.

wild-type E. coli = experiment: Sensitization of wild-type E. coli toward antibiotics (MIC of antibiotic with/without sensitizer); type: cell-based, Escherichia coli; conditions: for MIC: Escherichia coli
Protocol: Bacteria were cultured with the antibiotic at various concentrations in the presence or absence of bacterial sensitizer for 24 hours at 37° C. Bacterial growth density was determined by measuring OD600 (absorbance measured at a wavelength of 600 nm). […]
The formula for calculating FIC is shown below: […]

[4] = system: NDM-1 over-expressing E. coli; experiment: microbe, parasite or virus in culture; type: cell-based, Escherichia coli
E. coli and MRSA = experiment: Relative ratio of E. coli and MRSA under trovafloxacin with/without Compound A-8; type: cell-based, Escherichia coli; Staphylococcus aureus; conditions: trovafloxacin (16 ng/ml) alone
Source text: FIG. 23A is a comparison of the relative ratio of E. coli and MRSA treated with the antibiotic trovafloxacin in the absence (pie chart on the left) and in the presence (pie chart on the right) of Compound A-8 as described in Example 14. In the absence of Compound A-8, trovafloxacin preferred to inhibit E. coli and the bacterial population was 78% MRSA. However, Compound A-8 sensitizes trovafloxacin to MRSA.
As a proof of concept, the relative ratio of E. coli and MRSA (FIG. 23A) or B. subtilis and MRSA (FIG. 23 B) was measured with and without Compound A-8. […] However, when trovafloxacin (8 ng/ml) is supplied with 1.5 μg/ml of Compound A-8, MRSA inhibition was achieved and E. coli was the dominant species (89% of the bacteria population).

B. subtilis = B. subtilis viability with antibiotic in absence or presence of compound (OD600, 20 h); type: cell-based, Bacillus subtilis; conditions: M-1 12.5 or 6 μM; A-2 6 or 12.5 μM; A-8; 20 h
Protocol: Bacterial viability was then determined by measuring density using OD600. […] B. subtilis was also cultured with either novobiocin or tetracycline at varying concentrations either in the absence or presence of compound M-1 (12.5 μM) for 20 hours. Bacterial viability was subsequently determined by measuring density using OD600.
Bacterial viability was then determined by measuring density using OD600.

[5] = antibiotic plus Compound C 5 μg/ml

With `Cc1cc(COc2ccc(C3=NCCN3)cc2)cc(COc2ccc(C3=NCCN3)cc2)c1` [drawing 864] the “H9c2 CC^50” value (H9c2 cells) was 25 µM and the “3T3 CC^50” value (3T3 cells) was 25 µM.
In the case of `COc1cc(C(=N)N)ccc1OCc1cc(C)cc(COc2ccc(C(=N)N)cc2OC)c1` [drawing 871], the “HEK293 cytotoxicity at 100 μM ("100 μM result in x%")” value (HEK293 cells) is reported as 100 μM result in 10%.
In the case of `Cc1cc(COc2ccc(C(=N)N)cc2)cc(COc2ccc(C(=N)N)cc2)c1` [drawing 863], the “H9c2 CC^50” value (H9c2 cells) is reported as 50 µM, the “HEK293 cytotoxicity at 100 μM ("100 μM result in x%")” value (HEK293 cells) is reported as 100 μM result in 20% and the “3T3 cytotoxicity at 100 μM ("100 μM result in x%")” value (3T3 cells) is reported as 100 μM result in 20%.
With `Cc1cc(COc2ccc(CN)cc2)cc(COc2ccc(CN)cc2)c1` [Compound E-11, 1,3-Bis {(4-methanamine)-phenoxymethyl}-5-methylbenzene dihydrochloride] the “Sensitization effect on MRSA” value (MRSA; compound at 5 μg/ml) was “no effect” and the “Sensitization fold, B. subtilis towards erythromycin” value (wild type B. subtilis [1]) was 32 fold.
In the case of `CCCCCc1cc(OCc2ccc(C(=N)N)cc2)cc(OCc2ccc(C(=N)N)cc2)c1` [Compound E-20, 1,3-Bis {(4-amidino)-benzyloxy}-5-(n-pentyl)benzene dihydrochloride], the “Binding to lipid A (decrease of Dansyl-PMBN fluorescent intensity)” value [2] is reported as “bind to lipid A”.
For `Cc1cc(COc2ccc(C3=NCCCN3)cc2)cc(COc2ccc(C3=NCCCN3)cc2)c1` [Compound B-21, 2,2′-((((5-Methyl-1,3-phenylene)bis(methylene))bis(oxy))bis(4,1-phenylene))bis(1,4,5,6-tetrahydropyrimidine) dihydrochloride], the “Ability to sensitize Gram-negative bacteria (while preserving ability to sensitize some Gram-positive bacteria)” value (from here on “Ability”) (E. coli) was “greatly decrease, or even abolish”, the “Sensitization effect on B. subtilis” value (wild type B. subtilis [3]) was “no effect” and the “Sensitization fold, MRSA towards rifampicin” value (MRSA) was 16 fold.
For `N=C(N)c1ccc(OCc2ccc(COc3ccc(C(=N)N)cc3)cc2)cc1` [drawing 869], the “H9c2 CC^50” value (H9c2 cells) was 50 µM, the “HEK293 cytotoxicity at 100 μM ("100 μM result in x%")” value (HEK293 cells) was 100 μM result in 30% and the “3T3 cytotoxicity at 100 μM ("100 μM result in x%")” value (3T3 cells) was 100 result in 10%.
For `Cc1cc(COc2cccc(C(=N)N)c2)cc(COc2cccc(C(=N)N)c2)c1` [drawing 884], the “HEK293 cytotoxicity at 100 μM ("100 μM result in x%")” value (HEK293 cells) was 100 μM result in 20%.
For `N=C(N)c1ccc(OCc2cc(COc3ccc(C(=N)N)cc3)cc(COc3ccc(C(=N)N)cc3)c2)cc1` [drawing 875], the “HEK293 cytotoxicity at 100 μM ("100 μM result in x%")” value (HEK293 cells) was 100 μM result in 10%.
`N[C@@H]1[C@H]2CN(c3nc4c(cc3F)c(=O)c(C(=O)O)cn4-c3ccc(F)cc3F)C[C@@H]12` [Trovafloxacin, trovafloxacin] gave an MIC (wild-type E. coli; 24 h, antibiotic alone, wild-type E. coli, read-out: MIC of AB only) of 0.05 µg/mL, an MIC (wild-type E. coli; antibiotic alone, wild-type E. coli, read-out: MIC of AB only) of 0.05 µg/mL and an MIC (wild-type E. coli; read-out: MIC of AB with Compound C (5 μg/ml), antibiotic plus Compound C 5 μg/ml, wild-type E. coli) of 0.0015 µg/mL. The FIC (wild-type E. coli; fractional inhibitory concentration, antibiotic plus Compound C 5 μg/ml, wild-type E. coli) was 0.13, the MIC ([4]; Escherichia coli, antibiotic alone, read-out: MIC of AB only) was 0.025 µg/mL and the Sensitization fold ([4]; MIC of antibiotic only / MIC with Compound C 5 μg/ml) was 32. The FIC [4, 5] was 0.13, the “MIC of AB with Compound C (5 μg/ml)” value [4, 5] was 0.0008 µg/mL and the “MRSA share of the bacteria population (E. coli + MRSA)” value (E. coli and MRSA) was 78%.
For `N=C(N)c1ccc(OCc2cccc(COc3ccc(C(=N)N)cc3F)c2F)c(F)c1` [drawing 854], the “H9c2 CC^50” value (H9c2 cells) was 50 µM, the “HEK293 CC^50” value (HEK293 cells) was 100 µM and the “3T3 cytotoxicity at 100 μM ("100 μM result in x%")” value (3T3 cells) was 100 μM result in 30%.
With `Cc1cc(COc2ccc(CN)cc2)cc(COc2ccc(CN)cc2)c1` [drawing 874] the “HEK293 CC^50” value (HEK293 cells) was 25 µM and the “3T3 CC^50” value (3T3 cells) was 25 µM.
For `Cc1cc(COc2ccc(C3=NCCN3)cc2)cc(COc2ccc(C3=NCCN3)cc2)c1` [Compound A-2, 2,2′-((((5-Methyl-1,3-phenylene)bis(methylene))bis(oxy))bis(4,1-phenylene))bis(4,5-dihydro-1H-imidazole) Dihydrochloride], the “Ability” value (E. coli) was “greatly decrease, or even abolish” and the “B. subtilis growth inhibition, compound in combination with erythromycin vs erythromycin alone” value (B. subtilis) was “significant bacterial growth inhibition”.
With `COc1cc(C(=N)N)ccc1OCc1cc(COc2ccc(C(=N)N)cc2OC)cc(C(C)(C)C)c1` [drawing 882] the “HEK293 cytotoxicity at 100 μM ("100 μM result in x%")” value (HEK293 cells) was 100 μM result in 20%.
For `Cc1cc(CCc2ccc(C(=N)N)cc2)cc(CCc2ccc(C(=N)N)cc2)c1` [drawing 876], the “HEK293 CC^50” value (HEK293 cells) was 50 µM and the “3T3 CC^50” value (3T3 cells) was 50 µM.
In the case of `Cc1cc(OCc2ccc(C(=N)N)cc2)cc(OCc2ccc(C(=N)N)cc2)c1` [drawing 877], the “3T3 cytotoxicity at 100 μM ("100 μM result in x%")” value (3T3 cells) is reported as 100 UM result in 10%.
With `CCCNC(=N)c1ccc(COc2cc(C)cc(OCc3ccc(C(=N)NCCC)cc3)c2)cc1` [Compound E-13, 1,3-Bis {(4-n-propylamidino)-benzyloxy}-5-methylbenzene dihydrochloride] the “Ability” value (E. coli) was “greatly decrease, or even abolish”, the “Sensitization effect on B. subtilis” value (wild type B. subtilis [3]) was “no effect” and the “Sensitization fold, MRSA towards rifampicin” value (MRSA) was 16 fold.
